Measured values published in US20120178742A1, “METABOTROPIC GLUTAMATE RECEPTOR MODULATORS” (MERZ PHARMA GmbH & CO. KGaA, priority 2009, published 2012).
pEC50, pIC50: −log10 of the molar value.

Columns and labels:
[1] = target: T1, human metabotropic glutamate receptor mGluR5 (Homo sapiens, UniProt P41594); test: Cytosolic calcium studies with stably transfected cells (CHO-K1); format: cell-based
T1 construct: expressed in transfected cells; host or cells: CHO-K1
Description: Functional Assay of mGluR5 Receptors Cytosolic Calcium Studies with Stably Transfected Cells
Chinese hamster ovary cells (CHO-K1 cells), stably transfected for inducible expression of a human metabotropic glutamate receptor mGluR5, are seeded into black clear bottom 96 well plates at a density of 35.000 cells per well. The standard growth medium used (Dulbecco's modified Eagle Medium, DMEM plus L-proline) contains the appropriate inducer isopropyl-β-D-thiogalactopyranosid (IPTG) to achieve optimal receptor expression. One day after seeding the growth medium is exchanged for reconstituted Ca-Kit (Molecular Devices, USA) and incubated for one hour. Ca-Kit is reconstituted in an assay buffer containing 20 mM HEPES pH 7.4, glutamic-pyruvate transaminase, pyridoxal phosphate and sodium pyruvate in Hank's balanced salt solution (HBBS). Agonistic compounds to the receptor elicit increases in cytosolic calcium which can be measured as increases in fluorescence signals by use of a fluorescence imaging plate reader (Molecular Devices). […] Similarly, for the characterization of positive allosteric modulators, a dilution series of the test compound is added online to 384 well plates containing the described dye loaded cells and after a preincubation time of 5 minutes stimulated by a basal cell concentration of the agonist L-glutamate giving about 20% of the maximal signal.
(§1) The fluorescence signal increase after addition of agonist reflects the increase of cytosolic calcium. Inconsistencies in the amount of cells per well are normalised by using the spatial uniformity correction of the FLIPR operating software Screenworks. The mean of replicated temporal data (n=3-5) is calculated and used for graphical representation. For the evaluation of the pharmacology, the calcium changes in response to different concentrations of agonist or antagonist are determined using a maximum minus minimum (MaxMin) calculation.
(§2) All responses (RFU-values) are determined as percentage of control (=maximum response). EC50 and IC50 are calculated according the logistic equation using Prism 4.0 (GraphPad Software, USA).

mGluR5 receptors = target: T2, mGluR5 receptors (Rattus norvegicus, UniProt P31424); test: Cytosolic calcium studies with cultured rat astrocytes; format: cell-based
T2 construct: Primary astrocyte cultures are prepared from cortices of newborn rats; endogenous in cells; host or cells: primary rat cortical astrocytes (Sprague-Dawley pups)
Description: Primary astrocyte cultures are prepared from cortices of newborn rats as described by Booher and Sensenbrenner (1972, Neurobiology 2(3):97-105). Briefly, Sprague-Dawley rat pups (2-4 d old) are decapitated and neocortices are dissected, disintegrated with a nylon filter (pore size 80 μm) and carefully triturated. The cell suspension is plated on poly-D-lysine pre-coated flasks (Costar, Netherlands) and cultivated in Dulbecco's Modified Eagle's Medium (DMEM, Invitrogen, Germany) supplemented with 10% foetal calf serum (FCS, Sigma, Germany), 4 mM glutamine and […] gentamycin (both Biochrom, Germany) at 37° C. in a humidified atmosphere of 5% CO2/95% air for 7 days with exchanging the medium at day 2 and 6.
After 7 days in vitro (DIV), cells are shaken overnight at 250 rpm to remove oligodendrocytes and microglia. The next day, astrocytes are rinsed twice with CMF-PBS (calcium- and magnesium-free phosphate buffered saline, Biochrom, Germany), trypsinized and subplated on poly-D-lysine pre-coated 96-well plates (Greiner, Germany) at a density of 40,000 cells/well. 24 h after establishing the secondary culture the astrocytes are rinsed with PBS″ (phosphate buffered saline, Biochrom, Germany) and fed with astrocyte-defined medium (ADM) consisting of DMEM containing 1× G5-supplement (Invitrogen, Germany), 0.5 μg/ml heparan sulfate, and 1.5 μg/ml fibronectin (both Sigma, Germany) (Miller et al., (1993) Brain Res. 618(1):175-8). 3 days later the medium is exchanged and the cells incubated for another 2-3 days, so that at the time of experiments astrocytes are 14-15 DIV.
The increase of cytosolic calcium after stimulation with the mGluR5 agonist L-quisqualate is measured using a fluorometric imaging plate reader (FLIPR) and the Ca-Kit (both Molecular Devices). Prior to addition of agonist or antagonist the medium is aspirated and cells are loaded for 2 h at RT with 150 μl of loading buffer consisting of Ca-sensitive dye reconstituted in sodium chloride (123 mM), potassium chloride (5.4 mM), magnesium chloride (0.8 mM), calcium chloride (1.8 mM), D-glucose (15 mM), and HEPES (20 mM), pH 7.3. Subsequently, plates are transferred to FLIPR to detect calcium increase with the addition of L-quisqualate (100 nM) measured as relative fluorescence units (RFU). If antagonists are tested, these compounds are pre-incubated for 10 minutes at RT before addition of the respective agonist.
Thereafter, concentration-response curves for the positive modulator are performed in the presence of a fixed concentration of quisqualate showing the biggest window for potentiation (normally 10-30 nM).
as §1, §2

monoamine oxidase MAO-B = target: T3, monoamine oxidase MAO-B (Homo sapiens, UniProt P27338); test: Inhibition of monoamine oxidase MAO-B; format: biochemical; conditions: recombinant human enzyme expressed in insect Hi5 cells, 50 uM kynuramine
T3 construct: host or cells: insect Hi5 cells
T3 sequence (P27338 1-520): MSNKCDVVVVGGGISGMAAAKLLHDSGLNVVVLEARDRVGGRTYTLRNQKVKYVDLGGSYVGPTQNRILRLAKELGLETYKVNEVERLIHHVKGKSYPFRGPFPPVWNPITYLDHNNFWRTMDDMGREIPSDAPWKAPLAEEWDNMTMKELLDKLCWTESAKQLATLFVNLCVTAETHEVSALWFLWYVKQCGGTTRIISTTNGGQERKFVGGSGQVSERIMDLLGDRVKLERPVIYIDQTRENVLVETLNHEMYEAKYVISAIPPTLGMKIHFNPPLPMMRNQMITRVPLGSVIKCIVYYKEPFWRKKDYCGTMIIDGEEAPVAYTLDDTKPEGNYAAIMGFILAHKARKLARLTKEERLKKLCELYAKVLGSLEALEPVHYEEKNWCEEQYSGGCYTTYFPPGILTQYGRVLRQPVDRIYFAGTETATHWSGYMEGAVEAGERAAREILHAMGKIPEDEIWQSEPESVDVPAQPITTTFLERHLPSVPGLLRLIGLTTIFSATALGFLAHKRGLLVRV
Description: The inhibition of the enzyme monoamine oxidase MAO-B is tested with an enzyme from recombinant source, namely of the human enzyme expressed in insect Hi5 cells. Following a pre-incubation of the test compounds with the enzyme for 15 minutes at 37° C. in the incubation buffer (100 mM potassium phosphate, pH 7.4), the enzymatic reaction with 50 uM kynuramine is carried out for 60 minutes. The reaction product 4-hydroxyquinoline is quantified by spectrofluorometry. The compound vehicle used for this assay is 1% DMSO.

T1 sequence (P41594 21-1212): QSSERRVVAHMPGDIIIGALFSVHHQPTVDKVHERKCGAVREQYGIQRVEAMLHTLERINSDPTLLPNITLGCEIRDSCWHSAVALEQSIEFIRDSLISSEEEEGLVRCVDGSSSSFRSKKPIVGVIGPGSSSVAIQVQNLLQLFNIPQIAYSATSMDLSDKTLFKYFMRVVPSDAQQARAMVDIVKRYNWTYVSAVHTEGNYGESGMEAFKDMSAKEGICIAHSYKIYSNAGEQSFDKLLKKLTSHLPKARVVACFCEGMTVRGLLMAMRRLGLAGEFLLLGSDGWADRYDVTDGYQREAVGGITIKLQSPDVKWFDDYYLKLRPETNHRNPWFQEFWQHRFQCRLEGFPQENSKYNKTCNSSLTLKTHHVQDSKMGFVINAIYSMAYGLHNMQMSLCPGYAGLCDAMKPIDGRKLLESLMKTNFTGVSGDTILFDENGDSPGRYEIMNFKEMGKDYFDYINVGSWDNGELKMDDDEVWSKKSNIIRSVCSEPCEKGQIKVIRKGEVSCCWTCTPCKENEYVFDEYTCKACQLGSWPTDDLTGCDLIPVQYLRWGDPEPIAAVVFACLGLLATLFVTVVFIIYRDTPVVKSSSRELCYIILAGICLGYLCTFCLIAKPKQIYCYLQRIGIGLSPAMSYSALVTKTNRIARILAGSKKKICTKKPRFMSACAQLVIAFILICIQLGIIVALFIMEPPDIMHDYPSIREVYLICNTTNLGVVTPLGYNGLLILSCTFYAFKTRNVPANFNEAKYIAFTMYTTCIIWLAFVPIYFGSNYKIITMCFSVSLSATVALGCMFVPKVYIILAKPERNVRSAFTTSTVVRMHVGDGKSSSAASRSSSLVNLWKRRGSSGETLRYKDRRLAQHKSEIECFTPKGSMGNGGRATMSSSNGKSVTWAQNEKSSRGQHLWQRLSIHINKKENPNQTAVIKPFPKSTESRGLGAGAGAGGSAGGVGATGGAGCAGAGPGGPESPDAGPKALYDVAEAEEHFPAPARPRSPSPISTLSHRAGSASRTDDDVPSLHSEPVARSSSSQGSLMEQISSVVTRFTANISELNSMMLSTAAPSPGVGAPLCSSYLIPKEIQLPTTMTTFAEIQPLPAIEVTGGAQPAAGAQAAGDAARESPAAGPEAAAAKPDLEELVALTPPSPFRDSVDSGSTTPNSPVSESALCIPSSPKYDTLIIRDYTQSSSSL
T2 sequence (P31424 21-1203): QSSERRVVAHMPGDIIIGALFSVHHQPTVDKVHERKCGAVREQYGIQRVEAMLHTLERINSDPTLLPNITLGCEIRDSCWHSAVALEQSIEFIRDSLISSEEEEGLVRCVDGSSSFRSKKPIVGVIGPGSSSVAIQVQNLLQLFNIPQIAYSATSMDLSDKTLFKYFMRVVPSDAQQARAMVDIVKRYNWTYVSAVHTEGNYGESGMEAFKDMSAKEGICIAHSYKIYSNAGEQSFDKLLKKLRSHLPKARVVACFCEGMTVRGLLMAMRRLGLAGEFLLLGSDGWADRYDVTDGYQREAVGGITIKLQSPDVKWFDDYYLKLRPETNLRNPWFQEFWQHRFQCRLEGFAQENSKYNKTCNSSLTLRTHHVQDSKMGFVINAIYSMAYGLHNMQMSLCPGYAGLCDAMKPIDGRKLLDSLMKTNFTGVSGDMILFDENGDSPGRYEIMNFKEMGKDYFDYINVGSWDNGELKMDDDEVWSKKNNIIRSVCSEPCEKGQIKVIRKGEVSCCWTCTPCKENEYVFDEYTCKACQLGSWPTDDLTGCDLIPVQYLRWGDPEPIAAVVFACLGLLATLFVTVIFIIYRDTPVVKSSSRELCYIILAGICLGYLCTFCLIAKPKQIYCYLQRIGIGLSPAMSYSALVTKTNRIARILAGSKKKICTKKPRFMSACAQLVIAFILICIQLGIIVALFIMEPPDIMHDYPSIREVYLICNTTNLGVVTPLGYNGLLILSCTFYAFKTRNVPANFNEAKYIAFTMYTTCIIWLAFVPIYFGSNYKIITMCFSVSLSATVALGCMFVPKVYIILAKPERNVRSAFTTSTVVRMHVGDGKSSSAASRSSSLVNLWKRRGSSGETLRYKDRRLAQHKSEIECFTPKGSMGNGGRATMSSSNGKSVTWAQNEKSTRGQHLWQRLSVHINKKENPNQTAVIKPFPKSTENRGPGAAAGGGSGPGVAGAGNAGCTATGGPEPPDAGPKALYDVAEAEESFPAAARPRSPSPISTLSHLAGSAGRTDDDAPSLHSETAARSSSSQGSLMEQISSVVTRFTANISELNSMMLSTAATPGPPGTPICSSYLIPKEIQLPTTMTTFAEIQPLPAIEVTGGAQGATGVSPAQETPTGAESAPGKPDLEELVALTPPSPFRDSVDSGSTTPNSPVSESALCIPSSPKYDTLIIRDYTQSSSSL

| pEC50 [1] | pEC50 (mGluR5 receptors) | pIC50 (monoamine oxidase MAO-B) | SMILES |
| --- | --- | --- | --- |
| 6.89 | 6.64 | – | C(#Cc1cnc2ncnn2c1)c1ccccc1 [Example 33, 6-Phenylethynyl-[1,2,4]triazolo[1,5-a]pyrimidine] |
| 6.92 | 7.20 | – | Fc1ccc(C#Cc2cnc3ccnn3c2)cc1 [Example 4, 6-(4-Fluoro-phenylethynyl)-pyrazolo[1,5-a]pyrimidine] |
| 7.24 | 7.04 | 6.27 | Fc1ccc(C#Cc2cnc3ncsc3c2)cc1 [Example 46, 6-(4-Fluoro-phenylethynyl)-thiazolo[4,5-b]pyridine] |
| 7.42 | 7.05 | – | C(#Cc1cnc2ccnn2c1)c1ccccc1 [Example 1, 6-Phenylethynyl-pyrazolo[1,5-a]pyrimidine] |
| 8.00 | 7.14 | – | C(#Cc1cnc2ncsc2c1)c1ccccc1 [Example 38, 6-Phenylethynyl-thiazolo[4,5-b]pyridine] |
| 6.39 | 6.68 | – | Cc1ccccc1C#Cc1cnc2cccnc2c1 [Example 94, 3-(o-Tolylethynyl)-[1,5]naphthyridine] |
| 7.19 | 7.25 | – | Fc1ccccc1C#Cc1cnc2ncsc2c1 [Example 45, 6-(2-Fluoro-phenylethynyl)-thiazolo[4,5-b]pyridine] |
| 6.64 | 6.51 | – | C(#Cc1cnc2cccnc2c1)c1ccncc1 [Example 100, 3-(Pyridin-4-ylethynyl)-1,5-naphthyridine] |
| 7.44 | 7.11 | – | Cc1ccc(C#Cc2cnc3cccnc3c2)cc1 [Example 93, 3-(p-Tolylethynyl)-[1,5]naphthyridine] |
| 6.18 | 6.36 | – | Fc1cc(F)cc(C#Cc2cnc3ncsc3c2)c1 [Example 80, 6-((3,5-Difluorophenyl)ethynyl)thiazolo[4,5-b]pyridine] |
| 8.01 | 7.92 | – | Fc1ccc(C#Cc2cnc3cccnc3c2)cc1 [Example 69, 3-(4-Fluoro-phenylethynyl)-[1,5]naphthyridine] |
| 6.51 | 6.66 | – | Fc1ccc(C#Cc2cnc3ncsc3c2)c(F)c1 [Example 79, 6-((2,4-Difluorophenyl)ethynyl)thiazolo[4,5-b]pyridine] |
| 7.00 | 7.27 | 7.05 | Fc1cccc(C#Cc2cnc3nccnc3c2)c1 [Example 60, 7-(3-Fluoro-phenylethynyl)-pyrido[2,3-b]pyrazine] |
| 6.48 | 6.49 | – | O=C(c1nc2ncc(C#CC3=CCCCC3)cc2o1)N1CCCCC1 [Example 72, (6-Cyclohex-1-enylethynyl-oxazolo[4,5-b]pyridin-2-yl)-piperidin-1-yl-methanone] |
| 6.19 | 6.40 | – | Fc1ccc(C#Cc2ccc3ncnn3c2)cc1 [Example 55, 6-(4-Fluoro-phenylethynyl)-[1,2,4]triazolo[1,5-a]pyridine] |
| 5.89 | 5.82 | – | Fc1cccc(C#Cc2cnc3ncnn3c2)c1 [Example 47, 6-(3-Fluoro-phenylethynyl)-[1,2,4]triazolo[1,5-a]pyrimidine] |
| 6.13 | 6.33 | – | Fc1ccccc1C#Cc1ccc2ncnn2c1 [Example 54, 6-(2-Fluoro-phenylethynyl)-[1,2,4]triazolo[1,5-a]pyridine] |
| 5.64 | 6.28 | – | Cc1ccccc1C#Cc1cnc2ncsc2c1 [Example 75, 6-(o-Tolylethynyl)thiazolo[4,5-b]pyridine] |
| 7.04 | – | 6.28 | C(#Cc1cnc2nc(N3CCCCC3)sc2c1)c1ccccc1 [Example 81, 6-Phenylethynyl-2-piperidin-1-yl-thiazolo[4,5-b]pyridine] |
| 6.82 | 7.22 | – | O=C(c1nc2ncc(C#Cc3ccccc3)cc2o1)N1CCCCC1 [Example 43, (6-Phenylethynyl-oxazolo[4,5-b]pyridin-2-yl)-piperidin-1-yl-methanone] |
| 7.46 | 7.00 | – | C(#Cc1cnc2nccnc2c1)c1ccccc1 [Example 39, 7-Phenylethynyl-pyrido[2,3-b]pyrazine] |
| 7.64 | 7.15 | – | C(#Cc1cnc2ccnn2c1)C1=CCCCC1 [Example 8, 6-Cyclohex-1-enylethynyl-pyrazolo[1,5-a]pyrimidine] |
| 7.70 | 7.85 | – | Cc1cccc(C#Cc2cnc3ncsc3c2)c1 [Example 73, 6-(m-Tolylethynyl)thiazolo[4,5-b]pyridine] |
| 6.52 | 6.72 | 7.43 | Fc1ccccc1C#Cc1cnc2nccnc2c1 [Example 61, 7-(2-Fluoro-phenylethynyl)-pyrido[2,3-b]pyrazine] |
| 8.17 | 8.07 | – | Fc1cccc(C#Cc2cnc3cccnc3c2)c1 [Example 67, 3-(3-Fluoro-phenylethynyl)-[1,5]naphthyridine] |
| 7.68 | 7.12 | – | Fc1cccc(C#Cc2cnc3ccnn3c2)c1 [Example 3, 6-(3-Fluoro-phenylethynyl)-pyrazolo[1,5-a]pyrimidine] |
| 7.64 | 7.43 | – | Fc1cccc(C#Cc2cnc3ncsc3c2)c1 [Example 44, 6-(3-Fluoro-phenylethynyl)-thiazolo[4,5-b]pyridine] |
| 6.96 | 6.96 | – | C(#Cc1ccc2ncnn2c1)c1ccccc1 [Example 37, 6-Phenylethynyl-[1,2,4]triazolo[1,5-a]pyridine] |
| 6.60 | 6.32 | – | O=C(c1cc2ccc(C#Cc3ccccc3)cn2n1)N1CCCCC1 [Example 32, (6-Phenylethynyl-pyrazolo[1,5-a]pyridin-2-yl)-piperidin-1-yl-methanone] |
| 6.96 | 7.30 | – | C(#Cc1cnc2ccnn2c1)C1=CCSCC1 [Example 10, 6-(3,6-Dihydro-2H-thiopyran-4-ylethynyl)-pyrazolo[1,5-a]pyrimidine] |
